Data from PMC6270338, “Diterpenylquinone Hybrids: Synthesis and Assessment of Gastroprotective Mechanisms of Action in Human Cells” (Molecules, 2013).

Assays:
AGS cells [1] = experiment: Sodium taurocholate (NaT)-induced damage to AGS cells; assay type: cell-based, human; details: 60 min pre-treatment, then 10 mM NaT 30 min
Procedure: The effect of sodium taurocholate (NaT) on cell viability was determined according to [15]. […] Then, 10 mM NaT was added to all wells for 30 min. Untreated cells were used as controls. […] After incubation, the NRU assay was carried out.

AGS cells [2] = experiment: Cellular reduced glutathione (GSH) content of AGS cells; assay type: cell-based, human; details: 4 h; for GSH: post-confluent AGS, control 13.6 ± 0.7
Procedure: Untreated cells were used as controls. […] After incubation, the GSH content was determined using a colorimetric kit (BioAssays Systems, Hayward, CA, USA). Results are expressed as nanomol of soluble reduced sulfhydryls/10^6 cells.

[3] = Cytotoxicity, neutral red uptake assay, AGS; assay type: cell-based; details: human, AGS gastric epithelial cells, confluent monolayer, read-out: IC50 ± SD, cytotoxicity AGS
Procedure: (§1) Human lung fibroblasts MRC-5 (ATCC CCL-171) were grown in minimum essential Eagle medium (MEM) with Earles’s salts and 2 mM L-glutamine (Sigma-Aldrich Co.). Human epithelial gastric cells AGS (ATCC CRL-1739) were grown in Ham F-12 medium containing 1 mM L-glutamine. Both media were supplemented with 1.5 g/L sodium bicarbonate (Sigma-Aldrich Co.), 10% heat-inactivated fetal bovine serum (FBS), 100 IU/mL penicillin and 100 µg/mL streptomycin.Both cell lines were grown as monolayers in a humidified incubator with 5% CO2 in air at 37 °C. Culture media, antibiotics and FBS were obtained from Invitrogen Corp.
(§2) Cytotoxicity values were required as a reference to determine the working concentrations in the subsequent experiments. Briefly, confluent cultures of MRC-5 and AGS cells were treated during 24 h with medium containing the compounds at concentrations ranging from 0 up to 1,000 µM. The products were first dissolved in DMSO (1% final concentration) and then in the corresponding culture medium supplemented with 2% FBS. Untreated cells were used as controls. Cell viability was determined at the end of the incubation by means of the neutral red uptake (NRU) assay. Lansoprazole (Sigma-Aldrich Co., min. 98% by TLC) was used as reference compound.

[4] = Cytotoxicity, neutral red uptake assay, MRC-5; assay type: cell-based; details: human, MRC-5 lung fibroblasts, confluent monolayer, confluent MRC-5, 24 h, read-out: IC50 ± SD, cytotoxicity MRC-5
Procedure: as §1, §2

[5] = test system: human erythrocyte membranes; experiment: Inhibition of lipoperoxidation in erythrocyte membranes; assay type: biochemical
MRC-5 fibroblasts = experiment: MRC-5 fibroblast proliferation assay; assay type: cell-based, human; details: MRC-5, 4 days, concentrations 1/64 to 1/2 of IC50
Procedure: Untreated cells were used as controls. Cell viability was determined at the end of the incubation by means of the NRU assay.

[6] = test system: human erythrocyte membranes; experiment: Inhibition of lipoperoxidation in erythrocyte membranes; assay type: biochemical; details: at 100 µg/mL
Procedure: The inhibition of lipid peroxidation was determined using human erythrocyte membranes. The compounds were tested at 100 µg/mL.

AGS cells [7] = experiment: Prostaglandin E2 (PGE2) content of AGS cells; assay type: cell-based, human; details: 1 h; for PGE2: post-confluent AGS, control 52 ± 5
Procedure: One day after confluence, AGS cells were treated for 1 h with the compounds at 1/2 and 1/4 of the respective IC50 values. A control with medium only was included. Indomethacin (100 μM) was used as standard inhibitor of prostaglandin synthesis (Sigma-Aldrich Co., min. 99% by TLC). After incubation, PGE2 content was determined by means of a specific enzyme immunoassay kit (R & D Systems KGE004B, Minneapolis, MN, USA) and values were calculated according to the manufacturer instructions. Results are expressed as pg/well.

[8] = test system: HCl-EtOH-induced gastric lesions; set-up: method as in PMID 21996716; details: mice, orally, single dose of 5 mg/kg; cited from earlier work

CC1=C(CC[C@@H](C)CC(=O)O)[C@@]2(C)CCC[C@](C)(C(=O)O)C2CC1 (some centres unmarked) [Compound 5, Δ8(9) Junicedric acid]
reduction in cell viability, NaT-induced damage (AGS cells [1]; 83 µM): 19% | reduction in cell viability, NaT-induced damage (AGS cells [1]; 333 µM): 35% | Effect in the GSH assay (AGS cells [2]; AGS, 1/4 and 1/8 of IC50): devoid of activity | GSH (AGS cells [2]; 83 µM): 13.6 ± 0.5 nmol/10^6 cells | GSH (AGS cells [2]; 166 µM): 14.1 ± 0.6 nmol/10^6 cells | IC50 at 24 h [3]: 666 ± 35 µM | IC50 at 24 h [4]: 834 ± 51 µM | IC50, inhibition of the lipoperoxidation [5]: IC50 43.8 ± 2.8 µg/mL | Percentual proliferative increase compared to untreated cells (MRC-5 fibroblasts): 3.6%

C=C1CCC2[C@](C)(CCC[C@]2(C)C(=O)O)[C@H]1CC[C@@H](C)CC(=O)OC1=C(CCC(C)C)C(=O)C2=C(CCCC2)C1=O (some centres unmarked) [Compound 11, Dihydroprenyl-5,6,7,8-tetrahydrolapachoyl junicedrate]
% Inhibition of the lipoperoxidation [6]: 44% | GSH (AGS cells [2]; 8 µM): 13.1 ± 0.6 nmol/10^6 cells | GSH (AGS cells [2]; 16 µM): 13.2 ± 0.5 nmol/10^6 cells | IC50 at 24 h [3]: 63 ± 4 µM | IC50 at 24 h [4]: 42 ± 2 µM | Percentual proliferative increase compared to untreated cells (MRC-5 fibroblasts): 3.6%

CC(C)=CCC1=C(OC(=O)C[C@H](C)CC[C@H]2[C@@H](C)CCC3[C@]2(C)CCC[C@]3(C)C(=O)O)C(=O)c2ccccc2C1=O (stereo partly drawn) [Compound 13, Lapachoyl 17β-dihydrojunicedrate]
reduction in cell viability, NaT-induced damage (AGS cells [1]; 45 µM): 38% | reduction in cell viability, NaT-induced damage (AGS cells [1]; 89 µM): 38% | GSH (AGS cells [2]; 44 µM): 11.9 ± 0.4 nmol/10^6 cells | GSH (AGS cells [2]; 88 µM): 11.4 ± 0.6 nmol/10^6 cells | IC50 at 24 h [3]: 351 ± 29 µM | IC50 at 24 h [4]: 355 ± 21 µM | IC50, inhibition of the lipoperoxidation [5]: IC50 61.1 ± 5.9 µg/mL | Percentual proliferative increase compared to untreated cells (MRC-5 fibroblasts): 7.3%

COC(=O)[C@@]1(C)CCC[C@@]2(C)C1CC[C@H](C)[C@@H]2CC[C@@H](C)CC(=O)OC1=C(CCC(C)C)C(=O)c2ccccc2C1=O (stereo partly drawn) [Compound 16, Dihydroprenyl lapachol 17β-dihydrojunicedrate methyl ester]
% Inhibition of the lipoperoxidation [6]: 46% | reduction in cell viability, NaT-induced damage (AGS cells [1]; 81 µM): 44% | GSH (AGS cells [2]; 80 µM): 14.9 ± 0.7 nmol/10^6 cells | GSH (AGS cells [2]; 160 µM): 14.1 ± 0.6 nmol/10^6 cells | IC50 at 24 h [3]: 643 ± 39 µM | IC50 at 24 h [4]: 596 ± 44 µM

COC(=O)[C@@]1(C)CCC[C@@]2(C)C1CC[C@H](C)[C@@H]2CC[C@@H](C)CC(=O)OC1=C(CC=C(C)C)C(=O)C2=C(CCCC2)C1=O (stereo partly drawn) [Compound 18, Dihydroprenyl-5,6,7,8-tetrahydrolapachoyl 17β-dihydrojunicedrate methyl ester]
% Inhibition of the lipoperoxidation [6]: 28% | fold induction at 111 µM (AGS cells [7]; Homo sapiens, AGS, 111 µM, read-out: increase in PGE2 content): 2.4 | fold induction at 221 µM (AGS cells [7]; Homo sapiens, AGS, 221 µM, read-out: increase in PGE2 content): 3 | PGE2 (AGS cells [7]; 111 µM): 123 ± 9 pg/mL | PGE2 (AGS cells [7]; 221 µM): 156 ± 13 pg/mL | activation at 111 µM (AGS cells [2]; Homo sapiens, AGS, 111 µM, read-out: increase of GSH content compared to untreated controls): 26% | activation at 221 µM (AGS cells [2]; Homo sapiens, AGS, 221 µM, read-out: increase of GSH content compared to untreated controls): 26% | GSH (AGS cells [2]; 111 µM): * 17.1 ± 1.1 nmol/10^6 cells | GSH (AGS cells [2]; 221 µM): * 17.2 ± 1.0 nmol/10^6 cells | IC50 at 24 h [3]: 884 ± 62 µM | IC50 at 24 h [4]: 369 ± 29 µM | Percentual proliferative increase compared to untreated cells (MRC-5 fibroblasts): 3.6%

CC(C)=CCC1=C(OC(=O)C[C@H](C)CCC2=C(C)CCC3[C@@](C)(C(=O)O)CCC[C@]23C)C(=O)c2ccccc2C1=O (some centres unmarked) [Compound 19, Lapachoyl Δ8(9) junicedrate]
% Inhibition of the lipoperoxidation [6]: 49% | reduction in cell viability, NaT-induced damage (AGS cells [1]; 19 µM): 15% | reduction in cell viability, NaT-induced damage (AGS cells [1]; 37 µM): 27% | reduction in cell viability, NaT-induced damage (AGS cells [1]; 74 µM): 40% | GSH (AGS cells [2]; 19 µM): 13.1 ± 0.4 nmol/10^6 cells | GSH (AGS cells [2]; 37 µM): 13.5 ± 0.5 nmol/10^6 cells | IC50 at 24 h [3]: 148 ± 9 µM | IC50 at 24 h [4]: 129 ± 9 µM

CC1=C(CC[C@@H](C)CC(=O)OC2=C(CCC(C)C)C(=O)c3ccccc3C2=O)[C@@]2(C)CCC[C@](C)(C(=O)O)C2CC1 (some centres unmarked) [Compound 21, Dihydroprenyl lapachoyl Δ8(9) junicedrate]
fold induction at 85 µM (AGS cells [7]; Homo sapiens, AGS, 85 µM, read-out: increase in PGE2 content): 3.1 | PGE2 (AGS cells [7]; 85 µM): 162 ± 18 pg/mL | reduction in cell viability, NaT-induced damage (AGS cells [1]; 35 µM): 25% | reduction in cell viability, NaT-induced damage (AGS cells [1]; 70 µM): 27% | reduction in cell viability, NaT-induced damage (AGS cells [1]; 139 µM): 30% | activation at 70 µM (AGS cells [2]; Homo sapiens, AGS, 70 µM, read-out: increase of GSH content compared to untreated controls): 33% | GSH (AGS cells [2]; 35 µM): 13.3 ± 0.7 nmol/10^6 cells | GSH (AGS cells [2]; 70 µM): * 18.1 ± 1.1 nmol/10^6 cells | IC50 at 24 h [3]: 278 ± 14 µM | IC50 at 24 h [4]: 601 ± 26 µM | gastroprotective effect in vivo [8]: significant activity

CC1=C(CC[C@@H](C)CC(=O)OC2=C(CCC(C)C)C(=O)C3=C(CCCC3)C2=O)[C@@]2(C)CCC[C@](C)(C(=O)O)C2CC1 (some centres unmarked) [Compound 23, Dihydroprenyl-5,6,7,8-tetrahydrolapachoyl Δ8(9) junicedrate]
reduction in cell viability, NaT-induced damage (AGS cells [1]; 7.5 µM): 32% | reduction in cell viability, NaT-induced damage (AGS cells [1]; 15 µM): 39% | activation at 7.3 µM (AGS cells [2]; Homo sapiens, AGS, 7.3 µM, read-out: increase of GSH content compared to untreated controls): 26% | GSH (AGS cells [2]; 3.6 µM): 12.6 ± 0.8 nmol/10^6 cells | GSH (AGS cells [2]; 7.3 µM): * 17.1 ± 1.3 nmol/10^6 cells | IC50 at 24 h [3]: 29 ± 2 µM | IC50 at 24 h [4]: 20 ± 2 µM | IC50, inhibition of the lipoperoxidation [5]: IC50 59.5 ± 4.3 µg/mL | Stimulation of fibroblast proliferation (MRC-5 fibroblasts): inactive

COC(=O)[C@@]1(C)CCC[C@]2(C)C(CC[C@@H](C)CC(=O)OC3=C(CCC(C)C)C(=O)C4=C(CCCC4)C3=O)=C(C)CCC12 (some centres unmarked) [Compound 24, Dihydroprenyl-5,6,7,8-tetrahydrolapachoyl Δ8(9) junicedrate methyl ester]
% Inhibition of the lipoperoxidation [6]: 27% | fold induction at 250 µM (AGS cells [7]; Homo sapiens, AGS, 250 µM, read-out: increase in PGE2 content): 2.4 | PGE2 (AGS cells [7]; 250 µM): 123 ± 12 pg/mL | GSH (AGS cells [2]; 125 µM): * 18.7 ± 1.0 nmol/10^6 cells | GSH (AGS cells [2]; 250 µM): * 18.0 ± 0.9 nmol/10^6 cells | IC50 at 24 h [3]: > 1000 µM | IC50 at 24 h [4]: > 1000 µM | Stimulation of fibroblast proliferation (MRC-5 fibroblasts): inactive
